This is an account of results in ChEMBL document CHEMBL1201862, “PubChem BioAssay data set” (2004).

Active and inactive are the calls of the source. Rule as the data show it, for most assays here: actives have a measured EC50 and inactives only a lower limit.

Experiment [1] can be described thus: Luminescence Cell-Based Dose Confirmation HTS to Identify Activators of 5'UTR Stem-Loop Driven Alpha-Synuclein mRNA Translation in H4 Neuroglioblastoma Cells. [Related pubchem assays: 1829 (Project Summary), 1814 (Primary HTS)]. The class given is functional.
Experiment [2] in a line: Luminescence Cell-Based Dose Response HTS to Identify Activators of Luciferase Translation or Activity in H4 […] Cells. [Related pubchem assays: 1829 (Project Summary), 1814 (Primary HTS)]. Format: functional.
The nature of experiment [3]: HPDE-C7 pancreatic duct cell viability loss – fluorescence, HTS (AID 430). Conditions: Homo sapiens. The class given is functional, cell-based.
Experiment [4] in a line: NIH3T3 cell viability loss – ATP luminescence, mouse fibroblasts, counter-screen, dose response (AID 2010).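 Also: cells exposed to compound for about 90 hours before reading.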 Format: functional, cell-based.
The next experiment concerns the target T1, Caspase-3 (Homo sapiens, UniProt P42574).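 Also: Dose-response selectivity test against caspase-3 for candidate inhibitors of sentrin-specific proteases (SENPs).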
T1 sequence (P42574 whole entry): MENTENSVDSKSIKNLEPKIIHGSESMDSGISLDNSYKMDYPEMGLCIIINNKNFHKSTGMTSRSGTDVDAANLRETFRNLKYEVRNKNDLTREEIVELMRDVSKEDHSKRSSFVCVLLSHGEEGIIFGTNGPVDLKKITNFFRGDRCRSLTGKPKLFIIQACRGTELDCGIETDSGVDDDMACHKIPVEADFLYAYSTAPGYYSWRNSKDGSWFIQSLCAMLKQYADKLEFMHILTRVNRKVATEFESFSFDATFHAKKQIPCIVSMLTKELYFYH
The class given is functional.

Experiment [5] deals with T2, Sentrin-specific protease 7 (Homo sapiens, UniProt Q9BQF6).
T2 sequence (Q9BQF6 whole entry): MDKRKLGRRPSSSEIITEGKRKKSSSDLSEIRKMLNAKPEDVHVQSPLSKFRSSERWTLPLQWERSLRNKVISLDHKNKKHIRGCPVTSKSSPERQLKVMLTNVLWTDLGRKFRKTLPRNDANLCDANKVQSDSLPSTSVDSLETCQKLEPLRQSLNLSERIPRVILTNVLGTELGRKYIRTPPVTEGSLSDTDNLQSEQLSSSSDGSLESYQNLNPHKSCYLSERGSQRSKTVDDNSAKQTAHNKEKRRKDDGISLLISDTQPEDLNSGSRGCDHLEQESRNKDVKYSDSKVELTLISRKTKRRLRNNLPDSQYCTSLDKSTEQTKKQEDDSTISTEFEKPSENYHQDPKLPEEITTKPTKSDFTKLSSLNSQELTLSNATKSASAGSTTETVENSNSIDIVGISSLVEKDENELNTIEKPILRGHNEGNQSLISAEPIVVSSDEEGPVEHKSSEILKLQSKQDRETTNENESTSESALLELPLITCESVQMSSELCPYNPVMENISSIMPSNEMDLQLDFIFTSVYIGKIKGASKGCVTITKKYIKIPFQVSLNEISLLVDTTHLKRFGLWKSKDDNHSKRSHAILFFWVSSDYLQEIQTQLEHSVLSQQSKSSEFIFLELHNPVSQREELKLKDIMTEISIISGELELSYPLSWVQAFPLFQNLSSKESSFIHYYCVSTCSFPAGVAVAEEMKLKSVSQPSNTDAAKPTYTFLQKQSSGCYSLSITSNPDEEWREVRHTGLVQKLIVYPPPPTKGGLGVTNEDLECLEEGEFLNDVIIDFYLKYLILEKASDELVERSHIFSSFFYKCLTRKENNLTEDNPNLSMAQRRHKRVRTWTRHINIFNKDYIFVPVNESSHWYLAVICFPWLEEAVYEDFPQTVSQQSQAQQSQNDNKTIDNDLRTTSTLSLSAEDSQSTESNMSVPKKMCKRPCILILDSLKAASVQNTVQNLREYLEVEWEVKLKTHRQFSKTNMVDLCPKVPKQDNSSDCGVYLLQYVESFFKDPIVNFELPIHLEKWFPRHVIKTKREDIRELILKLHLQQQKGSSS
The class given is functional.

For experiment [6], the target named is T3, Apoptotic protease-activating factor 1 (Homo sapiens, UniProt O14727).
T3 sequence (O14727 whole entry): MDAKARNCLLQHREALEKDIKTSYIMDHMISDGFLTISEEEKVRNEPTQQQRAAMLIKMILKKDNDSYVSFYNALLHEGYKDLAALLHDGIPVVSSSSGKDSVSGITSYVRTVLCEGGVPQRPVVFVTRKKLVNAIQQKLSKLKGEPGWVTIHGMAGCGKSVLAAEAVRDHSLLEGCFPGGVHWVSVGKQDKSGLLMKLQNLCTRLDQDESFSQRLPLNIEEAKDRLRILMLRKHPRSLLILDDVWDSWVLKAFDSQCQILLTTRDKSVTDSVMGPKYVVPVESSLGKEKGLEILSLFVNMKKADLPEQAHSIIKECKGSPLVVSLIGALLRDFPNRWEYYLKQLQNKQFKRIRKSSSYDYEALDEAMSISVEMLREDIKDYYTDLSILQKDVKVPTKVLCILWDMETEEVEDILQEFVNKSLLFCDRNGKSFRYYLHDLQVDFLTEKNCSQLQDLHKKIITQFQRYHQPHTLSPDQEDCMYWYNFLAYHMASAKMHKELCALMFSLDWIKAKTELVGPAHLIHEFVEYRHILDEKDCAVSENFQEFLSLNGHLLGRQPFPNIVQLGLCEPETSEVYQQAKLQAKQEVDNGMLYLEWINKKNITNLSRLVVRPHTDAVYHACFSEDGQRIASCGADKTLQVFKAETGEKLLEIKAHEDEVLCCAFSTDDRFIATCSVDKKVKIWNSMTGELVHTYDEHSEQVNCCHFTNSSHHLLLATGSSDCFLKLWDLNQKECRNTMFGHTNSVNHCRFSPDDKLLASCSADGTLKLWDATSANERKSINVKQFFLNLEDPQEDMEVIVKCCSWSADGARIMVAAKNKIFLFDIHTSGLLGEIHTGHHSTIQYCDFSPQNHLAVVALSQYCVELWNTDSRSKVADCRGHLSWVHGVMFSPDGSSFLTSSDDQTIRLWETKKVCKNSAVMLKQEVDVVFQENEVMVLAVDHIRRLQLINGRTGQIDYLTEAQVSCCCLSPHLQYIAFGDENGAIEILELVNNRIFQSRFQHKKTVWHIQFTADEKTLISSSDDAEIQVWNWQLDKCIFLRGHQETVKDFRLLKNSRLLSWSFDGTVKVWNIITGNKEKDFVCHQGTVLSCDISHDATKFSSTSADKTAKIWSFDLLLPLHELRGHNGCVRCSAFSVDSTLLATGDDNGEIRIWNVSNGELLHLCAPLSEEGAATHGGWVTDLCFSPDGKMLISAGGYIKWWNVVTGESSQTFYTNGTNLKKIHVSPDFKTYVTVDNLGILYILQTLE
The experiment in a line: activation of Apaf-1 mediated apoptosis – fluorescent, uHTS hits, dose response (AID 588554). The class given is functional.

Turning to `COc1ccc(Nc2ccc3c(c2)=NC2(CCCCC2)[N+]=3[O-])cc1`, the 50% effective concentration (EC50) in experiment [1] is > 120 µM (not active); in experiment [2] it was > 120 µM (not active); in experiment [3], 6.89 µM (active); in experiment [4] it was 9.19 µM (active). Further, the figures for the IC50 (on Caspase-3; in experiment [5]) were 88.4 µM (active) and 9.21 µM (active), respectively.

As to `COc1ccc(/C=C2\SC(=S)N(CCC(=O)Nc3ccc(C(=O)O)cc3)C2=O)cc1OC`, the EC50 in experiment [6] was 9.36 µM (active).
